This is an account of results in patent US11731964B2, “Benzamide antibacterial agents” (Purdue Research Foundation, priority 2018, dated 2023).

≈ marks a conversion by molar mass, not a printed value.

One may read the MIC as the lowest concentration found to suppress growth.

Common to all, as to assay type: cell-based
Assay [1] has as its system C. difficile NR-32895 (P19). The assay can be described thus: Clostridium difficile inhibition analysis. To be noted: Table 6, P19.
Assay [2] has as its system Clostridium difficile ATCC BAA 1801. As to the kind of experiment: Clostridium difficile inhibition analysis. To be noted: Table 6, ATCC BAA 1801.
Assay [3] concerns C. difficile NR-32904 (P30). The assay can be described thus: Clostridium difficile inhibition analysis. To be noted: Table 6, P30.
Another assay concerns S. aureus. The assay can be described thus: MIC (Table 5, strain not given). To be noted: Staphylococcus aureus; S. aureus (Table 5). As to the method: (§1) Bacteria were cultured in cation-adjusted Mueller Hinton Broth (for strains in Tables 1 and 4) or Brain Heart Infusion broth (for Enterococcus faecium) or Tryptic Soy Broth (all other bacteria) in a 96-well plate at 37° C. for at least 20 hours. The MIC was classified as the lowest concentration where no visual growth of bacteria was observed. The minimum bactericidal concentration (MBC) was tested by spotting 4 μL from wells with no growth onto Tryptic Soy Agar (TSA) plates. Plates were incubated at 37° C. for at least 18 hours before recording the MBC.

For assay [4], the system named is C. difficile NR-13432 (isolate 6). The assay can be described thus: Clostridium difficile inhibition analysis. To be noted: Table 6, I6.
The test system of assay [5] is Clostridium difficile ATCC 9689. The assay can be described thus: Clostridium difficile inhibition analysis. To be noted: Table 6, ATCC 9689.
Assay [6] relates to C. difficile NR-13435 (isolate 9). As to the kind of experiment: Clostridium difficile inhibition analysis. To be noted: Table 6, I9.
The test system of assay [7] is Clostridium difficile ATCC 43255. As to the kind of experiment: Clostridium difficile inhibition analysis. To be noted: Table 6, ATCC 43255.
Assay [8] has as its system C. difficile NR-32883 (P2). As to the kind of experiment: Clostridium difficile inhibition analysis. To be noted: Table 6, P2.
The test system of another assay is MRSA ATCC 33592. The assay can be described thus: MIC, broth microdilution. To be noted: Staphylococcus aureus; MRSA ATCC 33592; read-out: MIC. The protocol:
as §1

The test system of assay [9] is C. difficile NR-32891 (P13). As to the kind of experiment: Clostridium difficile inhibition analysis. To be noted: Table 6, P13.
The next assay has as its system VRE. The assay can be described thus: MIC (Table 5, strain not given). To be noted: Enterococcus; VRE (Table 5). The protocol:
as §1

The test system of the next assay is E. faecalis. As to the kind of experiment: MIC (Table 5, strain not given). To be noted: Enterococcus faecalis; E. faecalis (Table 5). As to the method: as §1

On to `O=C(Nc1nnc(-c2ccc(C(F)(F)F)cc2)o1)c1ccc(S(=O)(=O)Nc2ccccc2)cc1` [HSGN-118, 4-(N-phenylsulfamoyl)-N-(5-(4-(trifluoromethyl)phenyl)-1,3,4-oxadiazol-2-yl)benzamide], for which the Clostridium difficile inhibition in [1], in [2], in [3], in [4], in assay [5] and in assay [6] was 0.5 in each case. Besides, the Clostridium difficile inhibition is on record as 0.5 in assay [7], 0.5 in [8] and 1 in assay [9]. Also, the MIC with S. aureus and in the assay with MRSA ATCC 33592 was 4 µg/mL (≈ 8.19 µM) throughout.

As for `CN(c1ccccc1)S(=O)(=O)c1ccc(C(=O)Nc2nnc(-c3ccc(C(F)(F)F)cc3)o2)cc1` [HSGN-161, 4-(N-methyl-N-phenylsulfamoyl)-N-(5-(4-(trifluoromethyl)phenyl)-1,3,4-oxadiazol-2-yl)benzamide], the Clostridium difficile inhibition in assay [1] stood at 0.5; in assay [2], 1; in assay [3], 0.5; in [4] it was 0.5; in assay [5], 0.5; in [6], 0.5. For the same compound, the Clostridium difficile inhibition in [7], in assay [8] and in [9] was 0.5 in each case. Also, the MIC with S. aureus and in the assay on MRSA ATCC 33592 was 0.25 µg/mL (≈ 0.498 µM) each time.

As to `C[C@@H]1C[C@H](C)CN(S(=O)(=O)c2ccc(C(=O)Nc3nnc(-c4ccnn4C)o3)cc2)C1` [HSGN-124, 4-(((3S,5R)-3,5-dimethylpiperidin-1-yl)sulfonyl)-N-(5-(1-methyl-1H-pyrazol-5-yl)-1,3,4-oxadiazol-2-yl)benzamide], the Clostridium difficile inhibition in [1] was 1; in assay [2], 2; in assay [3], 2; in assay [4], 0.5; in assay [5] it was 1; in assay [6], 0.5. Also, the Clostridium difficile inhibition is 1 in assay [7], 0.5 in assay [8] and 2 in assay [9]. For the same compound, the MIC against VRE is 128 µg/mL (≈ 288 µM); with E. faecalis, 16 µg/mL (≈ 36 µM); in the assay with S. aureus it was 8 µg/mL (≈ 18 µM); in the assay with MRSA ATCC 33592, 4 µg/mL (≈ 9 µM).
